From article PMC7663272, “Discovery of Tricyclic Pyranochromenone as Novel Bruton’s Tyrosine Kinase Inhibitors with In Vivo Antirheumatic Activity” (International Journal of Molecular Sciences, 2020)

Tests used:
CYP1A2 = molecular target: T1, CYP1A2 (Homo sapiens, UniProt P05177); assay: P450-Glo CYP inhibition assay, CYP1A2; type: in vitro ADME
T1 construct: purchased Promega V9770
T1 sequence (P05177 1-516): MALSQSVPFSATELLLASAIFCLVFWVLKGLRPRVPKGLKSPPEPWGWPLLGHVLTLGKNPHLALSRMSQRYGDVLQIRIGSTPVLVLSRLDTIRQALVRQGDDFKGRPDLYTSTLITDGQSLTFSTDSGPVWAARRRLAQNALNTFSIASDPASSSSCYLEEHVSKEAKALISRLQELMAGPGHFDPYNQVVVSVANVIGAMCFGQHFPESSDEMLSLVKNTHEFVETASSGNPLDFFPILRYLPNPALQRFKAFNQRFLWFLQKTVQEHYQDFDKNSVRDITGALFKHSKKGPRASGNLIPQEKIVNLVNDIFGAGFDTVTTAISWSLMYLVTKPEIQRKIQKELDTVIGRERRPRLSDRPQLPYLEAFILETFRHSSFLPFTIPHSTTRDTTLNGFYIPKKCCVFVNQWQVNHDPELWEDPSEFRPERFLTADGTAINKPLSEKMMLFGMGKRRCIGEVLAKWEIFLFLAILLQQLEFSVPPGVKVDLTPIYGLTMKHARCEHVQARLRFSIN
Protocol: (§1) The potential for CYP450 inhibition (CYP1A2, 2C9, 2C19, 2D6, and […]) was assessed using Promega P450-Glo^TM CYP450 assay systems. Luciferin-ME served as the substrate for CYP1A2, and the inhibitor α-naphthoflavone was used as a positive control. Luciferin-H was used as the substrate for CYP2C9, and the inhibitor sulfaphenazole was used as a positive control. Luciferin-H EGE was selected as the substrate for CYP2C19, whereas the inhibitor amitriptyline served as a positive control. Luciferin-ME EGE was used as the substrate for CYP2D6, whereas the inhibitor quinidine served as a positive control. Luciferin-BE was used as the substrate for CYP3A4, whereas the inhibitor ketoconazole was used as a positive control. The assays were performed using the excitation and emission wavelengths recommended by the manufacturer. Briefly, a CYP enzyme and a P450-Glo™ substrate were combined in potassium phosphate (0.1 M KPO4) buffer, with or without a test compound of interest, and […]. The reaction was initiated by adding two volumes of 2 times concentrated NADPH regeneration system. […] Luminescence was subsequently measured using a Tecan Infinite M1000 PRO microplate reader (Tecan Group Ltd., Switzerland). The percent inhibition was calculated relative to that of the positive control at a fixed concentration. […]

[1] = tested on: TNF-α production in LPS-stimulated THP-1 cells; assay: LPS-induced TNF-α release in THP-1 cells (ELISA); type: cell-based, human
Source text: BTK plays a critical role in high-affinity IgE receptor (FcεRI) and B cell receptor (BCR) signaling, resulting in the release of proinflammatory cytokines. Therefore, BTK inhibitor treatment can reduce the production of both lymphoid and myeloid cytokines. […] We examined the cellular effects of compound 8 on the production of cytokines IL-6 and TNF-α in LPS-stimulated THP-1 cells. Following treatment with LPS alone or LPS and compound 8, the levels of cytokines secreted by THP-1 cells were assessed (Figure 5). LPS increased the output of proinflammatory cytokines.
THP-1 cells were obtained from the American Type Culture Collection (ATCC, Manassas, VA, USA). The cells were cultured in RPMI-1640 supplemented with 10% FBS, 1% P/S, and 0.05 mM 2-mercaptoethanol and maintained at 37 °C and 5% CO2 in a humidified incubator. Cytokine secretion (hIL-6 and TNF-α) in the culture supernatants of the THP-1 cells was measured using a human cytokine ELISA kit (Abcam). Differentiated THP-1 cells were treated with agents and LPS for 24 h, after which the cell culture media was centrifuged at 2000× g for 10 min to remove debris. Briefly, each sample (50 μL) or standard was mixed with the appropriate detection antibody and incubated for 1 h at room temperature on a plate shaker. […] Subsequently, 100 μL of stop solution was added to each well, and the optical density (OD) was measured at 450 nm. […]

CYP2C19 = molecular target: T2, CYP2C19 (Homo sapiens, UniProt P33261); assay: P450-Glo CYP inhibition assay, CYP2C19; type: in vitro ADME
T2 construct: purchased Promega V9880
T2 sequence (P33261 whole entry): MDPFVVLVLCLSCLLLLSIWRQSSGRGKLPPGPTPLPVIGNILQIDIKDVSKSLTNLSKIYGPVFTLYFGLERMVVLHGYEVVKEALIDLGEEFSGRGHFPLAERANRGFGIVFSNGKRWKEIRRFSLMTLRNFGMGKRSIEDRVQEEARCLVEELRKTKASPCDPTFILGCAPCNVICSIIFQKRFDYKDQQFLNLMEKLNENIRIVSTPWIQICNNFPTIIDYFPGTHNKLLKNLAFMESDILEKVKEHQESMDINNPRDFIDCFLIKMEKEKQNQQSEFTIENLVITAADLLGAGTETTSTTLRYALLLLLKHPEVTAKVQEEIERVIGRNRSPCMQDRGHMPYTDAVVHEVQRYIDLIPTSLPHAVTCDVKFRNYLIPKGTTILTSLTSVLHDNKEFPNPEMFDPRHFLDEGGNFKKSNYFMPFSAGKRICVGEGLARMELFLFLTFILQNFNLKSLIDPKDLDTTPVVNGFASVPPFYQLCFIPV
Protocol: as §1

[2] = GIT-PAMPA in vitro permeability assay; type: in vitro ADME
Protocol: GIT-PAMPA was performed according to the manufacturer’s instructions (Pion Inc., Billerica, MA, USA). Briefly, the test compound was diluted in donor buffer (pH 7.4) to obtain a concentration of 50 μM. Then, 200 μL of this solution was added to the lower part of a 96-well PAMPA sandwich plate. The transmembrane side of the donor part was coated with a GIT-0 lipid solution, and 200 μL of the acceptor buffer was added to the upper part of the PAMPA sandwich plate. After incubating for 4 h at 25 °C, each sample was transferred to a fresh UV plate, after which the UV spectra were measured at wavelengths of 250–498 nm, and the permeability rate (Pe, 10^−6 cm/sec) was analyzed using the Pion PAMPA Explorer software (version 3.8, Pion Inc., Billerica, MA, USA).

[3] = % inhibition of human CYP isozymes at 10 μM

Compound: C=CC(=O)O[C@H]1Cc2cc3ccc(=O)oc3cc2OC1(C)C [Compound 8, (7S)-(+)-Acrylic acid, 8,8-dimethyl-2-oxo-6,7-dihydro-2H,8H-pyrano [3,2-g]chromen-7-yl ester]
- CYP1A2 inhibition (in words) (CYP1A2): rarely inhibited
- CYP inhibition 1A2 (CYP1A2; [3]): <1%
- production of TNF-α ([1]; LPS-stimulated differentiated THP-1 cells, 24 h, ELISA): significantly and dose-dependently reduced
- inhibitory activity on TNF-α production at 10 μM, compared with ibrutinib ([1]; compound at 10 μM, ibrutinib at 2 μM): comparable with that of ibrutinib at 2 μM
- CYP2C19 inhibition (in words) (CYP2C19): moderately inhibited
- CYP inhibition 2C19 (CYP2C19; [3]): 48.2%
- permeability (in words) [2]: excellent
